Values of other authors, collected in patent US20240156966A1 (priority 2021, published 2024).

Tested on: influenza virus
Conditions: in vivo

In the case of `CCOC(=O)C1=C[C@@H](OC(CC)CC)[C@H](NC(C)=O)[C@@H](N)C1` [Oseltamivir], the “patients with detectable viral RNA” value is listed as 50.0%.
